Square brackets hold non-standard residues; d marks the D form. Peptide text beside a SMILES is read from it. * marks the point of attachment. dPhe(4-Me) = Cc1ccc(C[C@@H](N)C(=O)O)cc1; Cys(free,S-linked) = N[C@@H](CS*)C(=O)O; dPhe(2-Cl) = N[C@H](Cc1ccccc1Cl)C(=O)O; d(hLeu) = CC(C)CC[C@@H](N)C(=O)O; dChg = N[C@@H](C(=O)O)C1CCCCC1
How the values were obtained:
[1] = target: T1, human calcium-sensing receptor (CaSR) (Homo sapiens, UniProt P41180); assay: Agonist activity on human calcium-sensing receptor (IP-One HTRF in stably transfected HEK293/CaSR cells); format: cell-based; conditions: HEK293/CaSR cells, IP-One production, 60 min at 37° C., CaCl2 1.2 mM; read-out: EC50 for calcium-sensing receptor
T1 construct: host or cells: HEK293
T1 sequence (P41180 20-1078): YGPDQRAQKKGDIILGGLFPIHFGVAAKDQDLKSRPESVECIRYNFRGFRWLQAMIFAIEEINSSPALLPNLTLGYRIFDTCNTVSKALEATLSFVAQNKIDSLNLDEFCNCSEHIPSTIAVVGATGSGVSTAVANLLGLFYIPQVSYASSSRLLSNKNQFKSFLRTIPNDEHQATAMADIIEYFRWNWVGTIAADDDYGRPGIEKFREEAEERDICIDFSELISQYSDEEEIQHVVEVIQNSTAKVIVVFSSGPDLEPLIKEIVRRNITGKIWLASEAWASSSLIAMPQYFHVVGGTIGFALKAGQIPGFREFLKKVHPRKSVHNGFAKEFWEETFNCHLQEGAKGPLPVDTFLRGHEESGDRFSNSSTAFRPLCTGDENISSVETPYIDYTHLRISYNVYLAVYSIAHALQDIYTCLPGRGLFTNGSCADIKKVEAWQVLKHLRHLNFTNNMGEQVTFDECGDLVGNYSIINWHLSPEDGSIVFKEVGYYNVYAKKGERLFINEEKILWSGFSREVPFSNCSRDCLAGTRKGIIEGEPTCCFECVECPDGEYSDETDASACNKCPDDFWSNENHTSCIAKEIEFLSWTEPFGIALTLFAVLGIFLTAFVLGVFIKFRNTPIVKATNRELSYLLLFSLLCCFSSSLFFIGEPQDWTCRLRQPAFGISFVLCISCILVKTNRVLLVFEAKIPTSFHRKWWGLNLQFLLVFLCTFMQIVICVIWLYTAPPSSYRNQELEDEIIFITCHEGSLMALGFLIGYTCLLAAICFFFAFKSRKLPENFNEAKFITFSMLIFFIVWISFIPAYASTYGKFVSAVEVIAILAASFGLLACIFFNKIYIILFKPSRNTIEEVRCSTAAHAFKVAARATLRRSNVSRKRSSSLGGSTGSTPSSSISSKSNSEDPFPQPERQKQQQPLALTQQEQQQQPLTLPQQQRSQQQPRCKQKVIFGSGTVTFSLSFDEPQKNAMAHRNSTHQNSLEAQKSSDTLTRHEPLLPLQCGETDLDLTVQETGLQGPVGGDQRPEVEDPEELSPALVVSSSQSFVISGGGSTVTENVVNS
Protocol: 3.1.1 Objective: The test example is intended to measure the agonist activity of compounds 1-38 on the human calcium-sensing receptor (CaSR).
Stably transfected HEK293/CaSR cells (source: Pharmaron) were cultured in a complete medium (composition: DMEM, high glucose+10% FBS+2 mM GlutaMAX+1× Penicillin-Streptomycin+200 μg/mL Hygromycin B) and incubated at 37° C./5% CO2 till 70%-90% cell confluence. The cells were digested with TrypLE, inoculated into 384-well cell culture plates, and cultured overnight at 37° C./5% CO2. After buffer exchange, stimulation buffer (HEPES 10 mM, MgCl2 0.5 mM, KCl 4.2 mM, NaCl 146 mM, glucose 5.5 mM, LiCl 50 mM, CaCl2 1.2 mM) and various concentrations of the test example compounds were added and incubated at 37° C. for 60 min. Production of IP-One in cells was detected according to the procedures in the Cisbio IP-One Tb kit instructions. The EC50 values of various test example compounds in influencing human calcium-sensing receptor was calculated by software after the raw data of the example compounds were collected, so as to evaluate the agonist activity of the example compounds on human calcium-sensing receptor.
HTRF signal was read by an EnVision detector with an excitation wavelength of 320 nm and emission wavelengths of 620 nm and 665 nm. The signal ratio (665 nm/620 nm×10,000) was calculated and fitted non-linearly to the sample concentration in GraphPad Prism 6 using a four-parameter equation to give EC50 values of the test example compounds 1-38.

human red blood cells = assay: Hemolytic effect on human red blood cells in vitro (absorbance at 540 nm); format: cell-based; conditions: 37° C., 1 h, FIG. 1
Protocol: To evaluate the hemolytic effect of the compounds disclosed herein on red blood cells in vitro, human whole blood (100 μL) was taken and mixed with a phosphate buffer. The mixture was centrifuged at 4° C. for 10 min and the supernatant was discarded. The red blood cells were resuspended in PBS buffer (900 μL) and centrifuged at 4° C. for 10 min with the supernatant discarded, and the procedures above were repeated once. The test example compounds were dissolved in 1×PBS buffer to a final concentration of 100 μg/mL. The red blood cells were resuspended in solutions of various test example compounds, an octylphenoxy poly(ethyleneoxy)ethanol-100 solution or PBS buffer, and incubated at 37° C. for 1 h. After incubation, the cells were centrifuged at 4° C. for 10 min and the supernatant (100 μL) was pipetted and transferred to a 96-well plate. The absorbance at 540 nm was detected for evaluating the hemolytic effect of the test example compounds on red blood cells in vitro.

[2] = test system: rat peritoneal mast cells; assay: In vitro histamine release in rat peritoneal mast cells (histamine ELISA); format: cell-based; conditions: for Relative fold of histamine release in vitro: test compound final concentration 10 μM, 15 min at 37° C., relative to PBS buffer (1.00)
Protocol: To evaluate the in vitro histamine release levels induced by some of the test example compounds, rat peritoneal mast cells were collected by lavaging rat peritoneum with a lavage buffer (cold HBSS+25 mM HEPES containing heparin 5 U/mL, pH 7.4). After collection, the cells were centrifuged, and the lavage buffer was discarded. The cells were resuspended and washed twice with a stimulation buffer (HBSS+25 mM HEPES+1 mM CaCl2), pH 7.4). The cells were plated at a density of 10^5 cell/well (200 μL/well) and incubated at 37° C. for 15 min with positive control compound 48/80 (final concentration: 4 μg/mL), test example compounds (final concentration: 10 μM) or vehicle control. The cells were centrifuged, and cell supernatant was collected and tested for histamine concentration according to LDN Histamine ELISA kit (BAE-1000) instructions.

5/6 nephrectomized rats = assay: In vivo efficacy in 5/6 nephrectomized rat model after continuous administration (plasma parathyroid hormone, serum calcium)
Text: 3.5.1 Objective: to evaluate the efficacy of some of the compounds disclosed herein in reducing plasma parathyroid hormone level and serum calcium level after continuous administration in a 5/6 nephrectomized rat model.
The rats were adapted. After anesthesia, ⅔ of the left kidney was surgically resected, and after 1 week of recovery, the right kidney was resected to establish the 5/6 nephrectomized rat model. After the second resection, the animals were normally fed for 2 weeks, tested for creatinine (CREA) and plasma parathyroid hormone level, and randomized as per the parathyroid hormone level into 4 groups of 10, including normal saline group, compound 17—low dose group, compound 17—high dose group and etelcalcetide group. After randomization, the normal saline group, compound 17—low dose group, compound 17—high dose group and etelcalcetide group were respectively administered with 1 dose of normal saline, 1 mg/kg of compound 17, 2 mg/kg of compound 17 and 1 mg/kg of etelcalcetide through the tail vein daily for 28 days. During the treatment period, parameters such as animal weight, plasma parathyroid hormone level and serum calcium were detected. The first day of treatment was taken as day 1.

Row | Compound | EC50 [1] [µM] | hemolytic effect on red blood cells (human red blood cells; 100 μg/mL in PBS) | Relative fold of histamine release in vitro [2] | histamine release levels in rat peritoneal mast cells in vitro relative to etelcalcetide ([2]; 10 μM, comparison with etelcalcetide) | hemolytic effect on red blood cells (human red blood cells; positive control solution) | serum calcium reduction (5/6 nephrectomized rats; after administration on days 1, 14 and 28) | extent of serum calcium reduction with the period of treatment (5/6 nephrectomized rats; minimum of serum calcium on days 14 and 28 compared to day 1)
1 | CC(=O)N[C@H](CSSC[C@H](N)C(=O)O)C(=O)N[C@H](CCCNC(=N)N)C(=O)N[C@H](CCCNC(=N)N)C(=O)N[C@H](Cc1ccc(C)cc1)C(=O)N[C@H](CCCNC(=N)N)C(=O)N[C@H](C)C(=O)N[C@H](CCCNC(=N)N)C(N)=O [Compound 12, Ac-c(C)-r-r-[D-Phe(4-CH3)]-r-a-r-NH2] (Ac-[dC](Cys(free,S-linked))[dR][dR][dPhe(4-Me)][dR][dA][dR]-NH2) | 1.28 | no significant hemolytic effect | 2.81 | – | – | – | –
2 | CC(=O)N[C@H](CSSC[C@H](N)C(=O)O)C(=O)N[C@H](CCCNC(=N)N)C(=O)N[C@H](CCCNC(=N)N)C(=O)N[C@@H](C(=O)N[C@H](CCCNC(=N)N)C(=O)N[C@H](CO)C(=O)N[C@H](CCCNC(=N)N)C(N)=O)C(C)C [Compound 29, Ac-c(C)-r-r-v-r-s-r-NH2] (Ac-[dC](Cys(free,S-linked))[dR][dR][dV][dR][dS][dR]-NH2) | 9.8 | no significant hemolytic effect | 0.99 | reduction in histamine release levels | – | – | –
3 | octylphenoxy poly(ethyleneoxy)ethanol-100 [reference compound] | – | – | – | – | significant hemolytic effect | – | –
4 | CC(=O)N[C@H](CSSC[C@H](N)C(=O)O)C(=O)N[C@H](C)C(=O)N[C@H](CCCNC(=N)N)C(=O)N[C@H](CCCNC(=N)N)C(=O)N[C@H](CCCNC(=N)N)C(=O)N[C@H](C)C(=O)N[C@H](CCCNC(=N)N)C(N)=O [Etelcalcetide, Ac-c(C)-a-r-r-r-a-r-NH2, reference compound] | 6.78 | – | 1.70 | – | – | reversible serum calcium reduction | did not increase with the period of treatment
5 | CC(=O)N[C@H](CSSC[C@H](N)C(=O)O)C(=O)N[C@H](CCCNC(=N)N)C(=O)N[C@H](CCCNC(=N)N)C(=O)N[C@H](CCC(C)C)C(=O)N[C@H](CCCNC(=N)N)C(=O)N[C@H](C)C(=O)N[C@H](CCCNC(=N)N)C(N)=O [Compound 19, Ac-c(C)-r-r-(D-hLeu)-r-a-r-NH2] (Ac-[dC](Cys(free,S-linked))[dR][dR][d(hLeu)][dR][dA][dR]-NH2) | 2.05 | no significant hemolytic effect | 2.07 | – | – | – | –
6 | CC(=O)N[C@H](CSSC[C@H](N)C(=O)O)C(=O)N[C@H](CCCNC(=N)N)C(=O)N[C@H](CCCNC(=N)N)C(=O)N[C@H](CO)C(=O)N[C@H](CCCNC(=N)N)C(=O)N[C@H](CO)C(=O)N[C@H](CCCNC(=N)N)C(N)=O [Compound 25, Ac-c(C)-r-r-s-r-s-r-NH2] (Ac-[dC](Cys(free,S-linked))[dR][dR][dS][dR][dS][dR]-NH2) | 10.1 | – | 1.65 | – | – | – | –
7 | CC(=O)N[C@H](CSSC[C@H](N)C(=O)O)C(=O)N[C@H](Cc1ccccc1Cl)C(=O)N[C@H](CCCNC(=N)N)C(=O)N[C@H](CCCNC(=N)N)C(=O)N[C@H](CCCNC(=N)N)C(=O)N[C@H](C)C(=O)N[C@H](CCCNC(=N)N)C(N)=O [Compound 2, Ac-c(C)-[D-Phe(2-Cl)]-r-r-r-a-r-NH2] (Ac-[dC](Cys(free,S-linked))[dPhe(2-Cl)][dR][dR][dR][dA][dR]-NH2) | 6.76 | – | 4.96 | – | – | – | –
8 | CC(=O)N[C@H](CSSC[C@H](N)C(=O)O)C(=O)N[C@H](Cc1c[nH]c2ccccc12)C(=O)N[C@H](CCCNC(=N)N)C(=O)N[C@H](CCCNC(=N)N)C(=O)N[C@H](CCCNC(=N)N)C(=O)N[C@H](C)C(=O)N[C@H](CCCNC(=N)N)C(N)=O [Compound 5, Ac-c(C)-(D-Trp)-r-r-r-a-r-NH2] (Ac-[dC](Cys(free,S-linked))[dW][dR][dR][dR][dA][dR]-NH2) | 1.14 | – | 4.13 | – | – | – | –
9 | CC(=O)N[C@H](CSSC[C@H](N)C(=O)O)C(=O)N[C@H](CCCNC(=N)N)C(=O)N[C@H](CCCNC(=N)N)C(=O)N[C@@H](C(=O)N[C@H](CCCNC(=N)N)C(=O)N[C@H](C)C(=O)N[C@H](CCCNC(=N)N)C(N)=O)C1CCCCC1 [Compound 20, Ac-c(C)-r-r-(D-Chg)-r-a-r-NH2] (Ac-[dC](Cys(free,S-linked))[dR][dR][dChg][dR][dA][dR]-NH2) | 7.53 | – | 2.33 | – | – | – | –
